We go through 20 molecules from patent publication US12624004B2 (Fudan University, priority 2019, dated 2026).

The target of one assay is T1, μ opioid receptor (Homo sapiens, UniProt P35372).
T1 construct: expressed in transfected cells; host or cells: CHO cells (membranes)
The assay is described as follows: Competition binding assay on membranes of CHO cells expressing μ opioid receptor, [3H]-labeled ligand. The note with it: for inhibition at 1 µM: read-out: μOR Binding rate (%); for Ki: read-out: μOR Ki. The essentials: (§1)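 CHO membranes (20–30 μg protein) incubated with [3H]-labeled ligand at 1–2 nM and test compounds, 30 min at 30° C; nonspecific binding with 1 μM corresponding ligand. Filtered on GF/C, washed with 50 mM Tris-HCl pH 7.4, scintillation-counted. IC50 converted to Ki by Ki=IC50/(1+[L]/Kd).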

Another assay deals with T2, δ opioid receptor (Homo sapiens, UniProt P41143).
T2 construct: expressed in transfected cells; host or cells: CHO cells (membranes)
Briefly: Competition binding assay on membranes of CHO cells expressing δ opioid receptor, [3H]-labeled ligand. As to conditions: for inhibition at 1 µM: 0.5 h, read-out: δOR Binding rate (%). The essentials:
as §1

The target of the next assay is T3, κ opioid receptor (Homo sapiens, UniProt P41145).
T3 construct: expressed in transfected cells; host or cells: CHO cells (membranes)
Briefly: Competition binding assay on membranes of CHO cells expressing κ opioid receptor, [3H]-labeled ligand. The note with it: for inhibition at 1 µM: 0.5 h, read-out: κOR Binding rate (%). The essentials: as §1

Another assay concerns Female mice. The assay is described as follows: In vivo hot plate method analgesia test. The note with it: intraperitoneal; for % MPE @ 10 mg/kg: Table 3-2, hot plate 55° C.; for ED50: Mus musculus, ip, Table 2-2, hot plate; for % MPE (5 mg/kg): Table 2-2, hot plate 55° C. The procedure, abridged:
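Female mice (~20 g) on a 55° C hot plate, hindpaw response latency as pain threshold (pre-screen 5–30 s, 60 s cut-off). Latencies at 15, 30, 60 and 120 min after intraperitoneal dosing. %MPE = (post−pre latency)/(60−pre)×100, ED50 derived from %MPE.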

Setting [1] is: Table 3-1, 1 μM concentration of compounds.
[2] abbreviates: Table 2-1, 1 μM concentration of compound.

Counter-ions that a name gives are not always drawn. Like-named read-outs stand apart in the source and are kept apart here.

On to `COc1cccc(C2(O)CCN(C(=O)N[C@@H](C)c3ccccc3)CC2CN(C)C)c1` (stereo partly drawn) [FWBF13, 3-((Dimethylamino)methyl)-4-hydroxy-4-(3-methoxyphenyl)-N-((S)-1-phenylethyl)piperidine-1-carboxamide hydrochloride], for which the inhibition at 1 µM is 20.5 ± 5.5% on μ opioid receptor (setting [1]), 0% at δ opioid receptor (setting [1]) and 4.1 ± 6.7% on κ opioid receptor (setting [1]). Besides, the “% MPE @ 10 mg/kg” value with Female mice was 5.77%.
For `COc1cccc(C2(O)CCN(C(=O)NC34CC5CC(CC(C5)C3)C4)CC2CN(C)C)c1` [FWBF14, N-((3S,5S,7S)-adamantan-1-yl)-3-((dimethylamino)methyl)-4-hydroxy-4-(3-methoxyphenyl) piperidine-1-carboxamide hydrochloride], the values for the inhibition at 1 µM at μ opioid receptor (setting [1]), at δ opioid receptor (setting [1]) and on κ opioid receptor (setting [1]) were 13.5 ± 4.8%, 0% and 17.9 ± 4.8%, respectively. In the assay on Female mice, the “% MPE @ 10 mg/kg” value stood at 24.15%.
For the molecule `COc1cccc(C2(O)CCN(C(=O)NC(C)C34CC5CC(CC(C5)C3)C4)CC2CN(C)C)c1.Cl` [FWBF15, N-(1-((3R,5R,7R)-adamantan-1-yl)ethyl)-3-((dimethylamino)methyl)-4-hydroxy-4-(3-methoxyphenyl)piperidine-1-carboxamide hydrochloride], the inhibition at 1 µM at μ opioid receptor (setting [1]) was 32.8 ± 5.5%; on δ opioid receptor (setting [1]), 0%; at κ opioid receptor (setting [1]), 10.4 ± 10.2%. The “% MPE @ 10 mg/kg” value in the assay on Female mice stood at 22.07%.
Turning to `COc1cccc(C2(O)CCN(C(=O)NC34CC5CC(CC(O)(C5)C3)C4)CC2CN(C)C)c1.Cl` [FWBF16, 3-((dimethylamino)methyl)-4-hydroxy-N-((1R,3S,5R,7S)-3-hydroxyadamantan-1-yl)-4-(3-methoxyphenyl)piperidine-1-carboxamide hydrochloride], the results for the inhibition at 1 µM on μ opioid receptor (setting [1]), on δ opioid receptor (setting [1]) and on κ opioid receptor (setting [1]) were 0%, 1.9% and 0%, respectively. Besides, the “% MPE @ 10 mg/kg” value in the assay with Female mice amounted to 16.07%.
As for `COC(=O)c1sccc1NC(=O)N1CCC(O)(c2cccc(OC)c2)C(CN(C)C)C1` (centres unmarked) [FWBF17, Methyl 3-(3-((dimethylamino)methyl)-4-hydroxy-4-(3-methoxyphenyl)piperidine-1-carboxamide) thiophene-2-carboxylate hydrochloride], the inhibition at 1 µM came to 10.2 ± 9% on μ opioid receptor (setting [1]), 0% on δ opioid receptor (setting [1]) and 0% on κ opioid receptor (setting [1]). In addition, the “% MPE @ 10 mg/kg” value in the assay on Female mice is 19.34%.
For the molecule `COC(=O)c1ccsc1NC(=O)N1CCC(O)(c2cccc(OC)c2)C(CN(C)C)C1` (centres unmarked) [FWBF18, Methyl 2-(3-((dimethylamino)methyl)-4-hydroxy-4-(3-methoxyphenyl)piperidine-1-carboxamide) thiophene-3-carboxylate hydrochloride], the inhibition at 1 µM on μ opioid receptor (setting [1]) was 2.3%; on δ opioid receptor (setting [1]), 16 ± 12.4%; at κ opioid receptor (setting [1]), 9.2 ± 3.1%. For the same molecule, the “% MPE @ 10 mg/kg” value with Female mice is 22.76%.
Consider `COc1cccc(C2(O)CCN(C(=O)Nc3cccs3)CC2CN(C)C)c1` (centres unmarked) [FWBF19, 3-((Dimethylamino)methyl)-4-hydroxy-4-(3-methoxyphenyl)-N-(thiophen-2-yl)piperidine-1-carboxamide hydrochloride], for which the inhibition at 1 µM on μ opioid receptor (setting [1]) was 0%; on δ opioid receptor (setting [1]) it was 38.2 ± 9.4%; at κ opioid receptor (setting [1]), 27.5 ± 6.4%. For the same molecule, in the assay with Female mice, the “% MPE @ 10 mg/kg” value is on record as 20.07%.
For `COc1cccc(C2(O)CCN(S(=O)(=O)Cc3ccccc3)CC2CN(C)C)c1.Cl` (centres unmarked) [FWBH6, 1-(Benzylsulfonyl)-3-((dimethylamino)methyl)-4-(3-methoxyphenyl)piperidin-4-ol hydrochloride], the inhibition at 1 µM at μ opioid receptor (setting [2]) turned out to be 0%. Moreover, the Ki on δ opioid receptor and at κ opioid receptor was above 10000 nM throughout. The same molecule showed an ED50 in the assay on Female mice of 1.1 mg/kg.
For the molecule `COc1cccc(C2(O)CCN(S(=O)(=O)Cc3cccc(Cl)c3)CC2CN(C)C)c1.Cl` (centres unmarked) [FWBH7, 1-((3-Chlorobenzyl)sulfonyl)-3-((dimethylamino)methyl)-4-(3-methoxyphenyl)piperidin-4-ol hydrochloride], the values for the inhibition at 1 µM on μ opioid receptor (setting [2]), on δ opioid receptor (setting [2]) and on κ opioid receptor (setting [2]) were 21.9 ± 2.4%, 28.8 ± 0.04% and 0%, respectively. The molecule also came in with a 50% effective dose (ED50) in the assay on Female mice of 1.58 mg/kg.
As to `COc1cccc(C2(O)CCN(S(=O)(=O)Cc3ccc(C)cc3)CC2CN(C)C)c1.Cl` (centres unmarked) [FWBH8, 3-((Dimethylamino)methyl)-4-(3-methoxyphenyl)-1-((4-methylbenzyl)sulfonyl)piperidin-4-ol hydrochloride], the Ki on μ opioid receptor (Table 2-1) was 247 ± 49.4 nM. Moreover, the inhibition at 1 µM at δ opioid receptor (setting [2]) came to 11.9 ± 1.31%; on κ opioid receptor (setting [2]), 29 ± 0.32%. In addition, the “% MPE (5 mg/kg)” value in the assay with Female mice came out at 17.36%.
For `COc1cccc(C2(O)CCN(S(=O)(=O)CCc3ccccc3)CC2CN(C)C)c1.Cl` (centres unmarked) [FWBH9, 3-((Dimethylamino)methyl)-4-(3-methoxyphenyl)-1-(phenethylsulfonyl)piperidin-4-ol hydrochloride], on μ opioid receptor (Table 2-1), the Ki is 1.79 ± 2 nM. The inhibition at 1 µM at δ opioid receptor (setting [2]) came out at 0%; at κ opioid receptor (setting [2]) it was 8.41 ± 1.66%. Besides, the “% MPE (5 mg/kg)” value with Female mice is listed as 100%.
`COc1cccc(C2(O)CCN(S(=O)(=O)Cc3cccc(C(F)(F)F)c3)CC2CN(C)C)c1.Cl` (centres unmarked) [FWBH10, 3-((Dimethylamino)methyl)-4-(3-methoxyphenyl)-1-((3-(trifluoromethyl)benzyl)sulfonyl) piperidin-4-ol hydrochloride]: the Ki stood at 4.68 ± 0.12 nM on μ opioid receptor (Table 2-1) and 3650 ± 1250 nM on δ opioid receptor (Table 2-1, read-out: δOR Ki). The inhibition at 1 µM on κ opioid receptor (setting [2]) worked out at 30.1 ± 0.7%. In addition, the “% MPE (5 mg/kg)” value in the assay with Female mice was 72.41%.
As to `COc1cccc(C2(O)CCN(S(=O)(=O)Cc3ccc(Cl)cc3)CC2CN(C)C)c1.Cl` (centres unmarked) [FWBH11, 1-((4-Chlorobenzyl)sulfonyl)-3-((dimethylamino)methyl)-4-(3-methoxyphenyl)piperidin-4-ol hydrochloride], the Ki on μ opioid receptor (Table 2-1) was determined as 711.7 ± 3.65 nM. Further, the figures for the inhibition at 1 µM at δ opioid receptor (setting [2]) and at κ opioid receptor (setting [2]) were 50.9 ± 1.58% and 36.6 ± 3.32%, respectively. Also, the “% MPE (5 mg/kg)” value with Female mice was 55.49%.
For the molecule `COc1cccc(C2(O)CCN(S(=O)(=O)Cc3ccc(F)cc3)CC2CN(C)C)c1.Cl` (centres unmarked) [FWBH12, 3-((Dimethylamino)methyl)-1-((4-fluorobenzyl)sulfonyl)-4-(3-methoxyphenyl)piperidin-4-ol hydrochloride], the Ki at μ opioid receptor (Table 2-1) was 39.2 ± 6.13 nM; on δ opioid receptor (Table 2-1, read-out: δOR Ki), 1110 ± 28.5 nM. For the same molecule, the inhibition at 1 µM at κ opioid receptor (setting [2]) is 45.9 ± 2.11%. In addition, in the assay on Female mice, the “% MPE (5 mg/kg)” value was 332.92%.
Take `COc1cccc(C2(O)CCN(S(=O)(=O)Cc3cccc(Br)c3)CC2CN(C)C)c1.Cl` (centres unmarked) [FWBH13, 1-((3-Bromobenzyl)sulfonyl)-3-((dimethylamino)methyl)-4-(3-methoxyphenyl)piperidin-4-ol hydrochloride]: the Ki at μ opioid receptor (Table 2-1) stood at 18.2 ± 4.37 nM. The inhibition at 1 µM on δ opioid receptor (setting [2]) came to 15.1 ± 2.47%; on κ opioid receptor (setting [2]) it was 42.1 ± 2.29%. Further, in the assay with Female mice, the “% MPE (5 mg/kg)” value is on record as 81.71%.
For the molecule `COc1cccc(C2(O)CCN(S(=O)(=O)Cc3ccccc3F)CC2CN(C)C)c1.Cl` (centres unmarked) [FWBH14, 3-((Dimethylamino)methyl)-1-((2-fluorobenzyl)sulfonyl)-4-(3-methoxyphenyl)piperidin-4-ol hydrochloride], at μ opioid receptor (Table 2-1), the Ki is 29.6 ± 2.53 nM. The inhibition at 1 µM on δ opioid receptor (setting [2]) is 40.8 ± 2.66%; on κ opioid receptor (setting [2]), 17.6 ± 6.34%. Also, the “% MPE (5 mg/kg)” value with Female mice is on record as 81.20%.
Consider `CCCCS(=O)(=O)N1CCC(O)(c2cccc(OC)c2)C(CN(C)C)C1.Cl` (centres unmarked) [FWBH15, 1-(Butylsulfonyl)-3-((dimethylamino)methyl)-4-(3-methoxyphenyl)piperidin-4-ol hydrochloride], for which the Ki at μ opioid receptor (Table 2-1) was determined as 34.9 ± 9.4 nM. The figures for the inhibition at 1 µM at δ opioid receptor (setting [2]) and at κ opioid receptor (setting [2]) were 27.2 ± 1.43% and 9.86 ± 2.67%, respectively. For the same molecule, in the assay on Female mice, the “% MPE (5 mg/kg)” value is 93.73%.
On the same counts, the results for `COc1cccc(C2(O)CCN(S(=O)(=O)c3ccccc3)CC2CN(C)C)c1.Cl` (centres unmarked) [FWBH16, 3-((Dimethylamino)methyl)-4-(3-methoxyphenyl)-1-(phenylsulfonyl)piperidin-4-ol hydrochloride] are 87.7 ± 9.37 nM, 40.5 ± 1.66%, 32.6 ± 0.55% and 100%.
In the case of `COc1cccc(C2(O)CCN(S(=O)(=O)Cc3ccc(C(F)(F)F)cc3)CC2CN(C)C)c1.Cl` (centres unmarked) [FWBH17, 3-((Dimethylamino)methyl)-4-(3-methoxyphenyl)-1-((4-(trifluoromethyl)benzyl)sulfonyl) piperidin-4-ol hydrochloride], at μ opioid receptor (Table 2-1), the Ki is 261 ± 35.3 nM. Moreover, the values for the inhibition at 1 µM on δ opioid receptor (setting [2]) and on κ opioid receptor (setting [2]) were 29.3 ± 1.66% and 25.4 ± 5.93%, respectively. Besides, in the assay on Female mice, the “% MPE (5 mg/kg)” value amounted to 48.32%.
For `CCS(=O)(=O)N1CCC(O)(c2cccc(OC)c2)C(CN(C)C)C1.Cl` (centres unmarked) [FWBH18, 3-((Dimethylamino)methyl)-1-(ethylsulfonyl)-4-(3-methoxyphenyl)piperidin-4-ol hydrochloride], the Ki on μ opioid receptor (Table 2-1) was found to be 180 ± 11.7 nM. In addition, the inhibition at 1 µM on δ opioid receptor (setting [2]) amounted to 24 ± 0.49%; at κ opioid receptor (setting [2]) it was 13.5 ± 2.22%. The “% MPE (5 mg/kg)” value in the assay with Female mice was 15.57%.
